Experimental findings from patent US20260365628A1, “SUBSTITUTED 3,4-DIHYDROQUINOLINONE INHIBITORS OF TSHR” (Septerna, Inc., priority 2022, published 2026) are described below.

The target in the assay is T1, hTSHR (Homo sapiens, UniProt P16473).
T1 construct: expressed in transfected cells
Kind of assay: hTSHR TR-FRET cAMP Assay (inhibition of M22-stimulated cAMP production). The following applies: Expi293F Inducible cells stably expressing hTSHR; cAMP HTRF; stimulated with EC80 of anti-TSHR antibody M22; 15 min compound preincubation, 30 min at 37° C.; read-out: Activity (IC50 bins). In kind it is cell-based. On the procedure: Assays were performed using Expi293F Inducible cells (Invitrogen) stably expressing hTSHR via a pcZeo TetO DNA plasmid. Cell lines were maintained in suspension in Expi293 Expression Medium (ThermoFisher Scientific) supplemented with 10 µg/mL Blasticidin and 10 μg/mL Zeocin and incubated at 37° C., 8% CO2, with shaking. hTSHR cells were incubated overnight at 32° C., 5% C02, with shaking, but […] Doxycycline. Assay-ready aliquots were prepared by harvesting each cell type separately 24-hours post-induction. Cells were pelleted at 4° C., resuspended in Expi293 Expression media+10% DMSO, aliquoted, and kept frozen at −80° C. until ready for use.
For the assay, concentration-response curves of test and reference compounds were added to 384-well plates using an Echo 650 liquid handler (Beckman Coulter) and backfilled with DMSO to a final concentration of 0.5%. cAMP was measured using the cisbio cAMP Gs dynamic HTRF kit (PerkinElmer) according to manufacturer instructions. Aliquots of frozen hTSHR cells were quickly thawed and washed with phosphate-buffered saline (Sigma-Aldrich) to remove media and DMSO. The cells were resuspended in kit-supplied Stimulation Buffer at 0.8×10^6 cells/mL. 7.5 μL of the hTSHR cell dilution were added to each well of the assay plate and incubated with the compounds for 15 minutes in a 37 C, 0% CO2 incubator. 2.5 μL of Vehicle control or an EC80 concentration of recombinant human anti-TSHR antibody (M22, Creative Biolabs) was added to stimulate cAMP production. Cells were incubated with for 30 minutes at 37° C., 0% CO2. Following this incubation, the cells were lysed and accumulated cAMP was detected through the addition of kit-supplied lysis buffer containing d2-reagent and Eu-cryptate antibody. The HTRF signal was quantified using a BMG Clariostar plate reader optimized for HTRF assays. The HTRF ratio was determined by dividing the signal output at […] by that at 620 nm. Data were normalized to the signal produced by the EC80 concentration of either M22 or FSH (0% inhibition) and vehicle (no agonist, 100% inhibition).

For orientation: IC50 means the concentration needed to halve the response being measured.

Where only a bound is given, the exact number is not on record here.

T1 sequence (P16473 21-764): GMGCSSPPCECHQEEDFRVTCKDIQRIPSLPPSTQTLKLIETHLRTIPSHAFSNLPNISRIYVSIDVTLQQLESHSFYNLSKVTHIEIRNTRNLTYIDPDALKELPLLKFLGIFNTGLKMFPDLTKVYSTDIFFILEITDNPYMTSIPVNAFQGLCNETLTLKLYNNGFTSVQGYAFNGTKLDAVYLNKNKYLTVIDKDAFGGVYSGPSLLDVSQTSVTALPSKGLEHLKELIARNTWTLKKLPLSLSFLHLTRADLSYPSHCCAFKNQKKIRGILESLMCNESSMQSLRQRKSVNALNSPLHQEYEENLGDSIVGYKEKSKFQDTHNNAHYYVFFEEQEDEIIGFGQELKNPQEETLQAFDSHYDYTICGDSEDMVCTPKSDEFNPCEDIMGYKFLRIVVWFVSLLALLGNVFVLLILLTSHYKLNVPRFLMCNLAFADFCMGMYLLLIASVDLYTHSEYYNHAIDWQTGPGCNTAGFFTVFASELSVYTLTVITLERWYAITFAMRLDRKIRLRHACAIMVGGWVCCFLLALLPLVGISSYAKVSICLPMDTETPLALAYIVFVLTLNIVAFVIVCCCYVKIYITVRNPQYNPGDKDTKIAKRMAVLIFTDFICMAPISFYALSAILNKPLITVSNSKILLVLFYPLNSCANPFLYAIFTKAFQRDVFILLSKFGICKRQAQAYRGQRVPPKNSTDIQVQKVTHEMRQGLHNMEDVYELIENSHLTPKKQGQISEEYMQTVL

For the compound `C[C@H]1Oc2nc(NC(=O)NC(C)(C)C)c(C(F)(F)F)cc2N(Cc2cccc(C(F)F)c2)C1=O` [Example 374, (R)-1-(tert-butyl)-3-(1-(3-(difluoromethyl)benzyl)-3-methyl-2-oxo-7-(trifluoromethyl)-2,3-dihydro-1H-pyrido[2,3-b][1,4]oxazin-6-yl)urea], the IC50 was less than 100 nM. In the case of `Cc1cccc([C@H](C)N2C(=O)CCc3cc(NC(=O)NC(C)(C)C)ccc32)c1` [Example 56, (S)-1-(tert-butyl)-3-(2-oxo-1-(1-(m-tolyl)ethyl)-1,2,3,4-tetrahydroquinolin-6-yl)urea], the IC50 was less than 100 nM. As to `CC(c1nc(Cl)ccc1Cl)n1c(=O)cnc2cc(NC(=O)NC(C)(C)C)ccc21` (centres unmarked) [Example 254, 1-(tert-butyl)-3-(1-(1-(3,6-dichloropyridin-2-yl)ethyl)-2-oxo-1,2-dihydro-quinoxalin-6-yl)urea], the IC50 was in the range of 100 to 1000 nM. On to `C[C@@H](c1cccc(N2CCCCC2)c1)n1c(=O)cnc2cc(NC(=O)NC(C)(C)C)ccc21` [Example 127, (S)-1-(tert-butyl)-3-(2-oxo-1-(1-(3-(piperidin-1-yl)phenyl)ethyl)-1,2-dihydroquinoxalin-6-yl)urea], for which the IC50 was 100 to 1000 nM. As for `C[C@@H]1Oc2cc(NC(=O)NC(C)(C)C)ccc2N(Cc2cc(Cl)ccc2C#N)C1=O` [Example 86, (S)-1-(tert-butyl)-3-(4-(5-chloro-2-cyanobenzyl)-2-methyl-3-oxo-3,4-dihydro-2H-benzo[b][1,4]oxazin-7-yl)urea], the figure is greater than 1000 nM. The same measure for `C[C@H]1Oc2cc(NC(=O)NC(C)(C)C)c(F)c(F)c2N(Cc2cccc(C(F)F)c2)C1=O` [Example 340, (R)-1-(tert-butyl)-3-(4-(3-(difluoromethyl)benzyl)-5,6-difluoro-2-methyl-3-oxo-3,4-dihydro-2H-benzo[b][1,4]oxazin-7-yl)urea]: 100 to 1000 nM; for `CC(C)(C)NC(=O)Nc1ccc2c(c1)C[C@H](CC#N)C(=O)N2Cc1ccccc1` [Example 275, (R)-1-(1-benzyl-3-(cyanomethyl)-2-oxo-1,2,3,4-tetrahydroquinolin-6-yl)-3-(tert-butyl)urea]: greater than 1000 nM; for `CC(C)(C)NC(=O)Nc1ccc2c(c1)CCC(=O)N2Cc1ccccc1F` [Example 19, 3-tert-butyl-1-{1-[(2-fluorophenyl)methyl]-2-oxo-3,4-dihydroquinolin-6-yl}urea]: less than 100 nM.

As for `CC(C)(C)NC(=O)Nc1ccc2c(c1)OCC(=O)N2C(c1ccccc1)C(F)(F)F` (centres unmarked) [Example 296, 1-(tert-butyl)-3-(3-oxo-4-(2,2,2-trifluoro-1-phenylethyl)-3,4-dihydro-2H-benzo[b][1,4]oxazin-7-yl)urea], the concentration for half-maximal inhibition (IC50) is 100 to 1000 nM. Regarding `CC(C)(CF)NC(=O)Nc1ccc2c(c1)ncc(=O)n2Cc1ccccc1` [Example 195, 1-(1-benzyl-2-oxo-1,2-dihydroquinoxalin-6-yl)-3-(1-fluoro-2-methylpropan-2-yl)urea], the IC50 is greater than 1000 nM.

`C[C@@H](c1cccc(OC(F)(F)F)c1)n1c(=O)cnc2cc(NC(=O)NC3(C)COC3)ccc21` [Example 212]: the IC50 is greater than 1000 nM.

On to `C[C@H]1Oc2cc(NC(=O)NC(C)(C)C)c(C#N)cc2N([C@@H](C)c2ccccc2)C1=O` [Example 366, 1-(tert-butyl)-3-((R)-6-cyano-2-methyl-3-oxo-4-((S)-1-phenylethyl)-3,4-dihydro-2H-benzo[b][1,4]oxazin-7-yl)urea], for which the concentration for half-maximal inhibition (IC50) is less than 100 nM.

`CN1Cc2cc(NC(=O)NC(C)(C)C)ccc2N(Cc2ccccc2)C1=O` [Example 12, 1-(1-benzyl-3-methyl-2-oxo-1,2,3,4-tetrahydroquinazolin-6-yl)-3-(tert-butyl)urea]: the IC50 lay within 100 to 1000 nM. As for `C[C@H]1Oc2nc(NC(=O)NC(C)(C)C)c(C(F)(F)F)cc2N(Cc2ccccc2)C1=O` [Example 368, (R)-1-(1-benzyl-3-methyl-2-oxo-7-(trifluoromethyl)-2,3-dihydro-1H-pyrido[2,3-b][1,4]oxazin-6-yl)-3-(tert-butyl)urea], the half-maximal inhibitory concentration (IC50) was less than 100 nM. With `CC(C)(C)NC(=O)Nc1ccc2c(c1)CC(C(F)(F)F)C(=O)N2Cc1ccccc1` (centres unmarked) [Example 301, 1-(1-benzyl-2-oxo-3-(trifluoromethyl)-1,2,3,4-tetrahydroquinolin-6-yl)-3-(tert-butyl)urea], the half-maximal inhibitory concentration (IC50) was greater than 1000 nM. As for `C[C@H]1Oc2cc(NC(=O)NC(C)(C)C)ccc2N(Cc2ccnc(C(F)(F)F)c2)C1=O` [Example 163, (R)-1-(tert-butyl)-3-(2-methyl-3-oxo-4-((2-(trifluoro-methyl)pyridin-4-yl)methyl)-3,4-dihydro-2H-benzo [b][1,4]oxazin-7-yl)urea], the figure is 100 to 1000 nM. For the compound `CC(C)(C)NC(=O)Nc1ccc2c(c1)CC(C)(C)C(=O)N2Cc1ccccc1` [Example 29, 1-(1-benzyl-3,3-dimethyl-2-oxo-1,2,3,4-tetrahydroquinolin-6-yl)-3-(tert-butyl)urea], the 50% inhibitory concentration (IC50) was greater than 1000 nM.

Turning to `C[C@@H](c1cccc2c1CCC2)n1c(=O)cnc2cc(NC(=O)NC(C)(C)C)ccc21` [Example 125, (S)-1-(tert-butyl)-3-(1-(1-(2,3-dihydro-1H-inden-4-yl)ethyl)-2-oxo-1,2-dihydroquinoxalin-6-yl)urea], the half-inhibitory concentration (IC50) was 100 to 1000 nM. Turning to `C[C@@H](c1cccc(C(F)(F)F)c1)N1C(=O)CCc2cc(NC(=O)NC(C)(C)C)ccc21` [Example 60, (S)-3-tert-butyl-1-(2-oxo-1-{1-[3-(trifluoromethyl)phenyl]ethyl}-3,4-dihydroquinolin-6-yl)urea], the 50% inhibitory concentration (IC50) was less than 100 nM. With `C[C@@H](c1cccc(OC(F)(F)F)c1)n1c(=O)cnc2cc(NC(=O)NC34CCC(C3)C4)ccc21` [Example 213, (S)-1-(bicyclo[2.1.1]hexan-1-yl)-3-(2-oxo-1-(1-(3-(trifluoromethoxy)phenyl)ethyl)-1,2-dihydroquinoxalin-6-yl)urea], the IC50 was less than 100 nM. For `CC(C)(C)NC(=O)Nc1ccc2c(c1)CCC(=O)N2Cc1cc(C(F)(F)F)ccc1F` [Example 39, 1-(tert-butyl)-3-(1-(2-fluoro-5-(trifluoromethyl)benzyl)-2-oxo-1,2,3,4-tetrahydroquinolin-6-yl)urea], the 50% inhibitory concentration (IC50) was less than 100 nM. As for `C[C@H]1Oc2cc(NC(=O)NC(C)(C)C)c(C#N)cc2N(Cc2cccc(C(F)F)c2)C1=O` [Example 342, (R)-1-(tert-butyl)-3-(6-cyano-4-(3-(difluoromethyl)benzyl)-2-methyl-3-oxo-3,4-dihydro-2H-benzo[b][1,4]oxazin-7-yl)urea], the figure is less than 100 nM; as for `C[C@@H](c1cccc(Cl)c1)N1C(=O)CCc2nc(NC(=O)NC(C)(C)C)ccc21` [Example 290, (S)-1-(tert-butyl)-3-(5-(1-(3-chlorophenyl)ethyl)-6-oxo-5,6,7,8-tetrahydro-1,5-naphthyridin-2-yl)urea], greater than 1000 nM. As for `Cc1ccc(F)c(CN2C(=O)CCc3cc(NC(=O)NC(C)(C)C)ccc32)c1` [Example 49, 1-(tert-butyl)-3-(1-(2-fluoro-5-methylbenzyl)-2-oxo-1,2,3,4-tetrahydroquinolin-6-yl)urea], the IC50 is less than 100 nM. Regarding `CC(C)(C)NC(=O)Nc1ccc2c(c1)nc(N)c(=O)n2Cc1ccccc1` [Example 294, 1-(3-amino-1-benzyl-2-oxo-1,2-dihydroquinoxalin-6-yl)-3-(tert-butyl)urea], the half-maximal inhibitory concentration (IC50) was greater than 1000 nM.

On to `C[C@@H](c1cccc(OC(F)(F)F)c1)n1c(=O)cnc2cc(NC(=O)NC3(C(F)(F)F)COC3)ccc21` [Example 222], for which the IC50 was in the range of 100 to 1000 nM.
